Experimental data taken from patent publication US20100298141A1, “SUBSTITUTED PYRIDINE N-OXIDE HERBICIDES” (E. I. DU PONT DE NEMOURS AND COMPANY, priority 2007, published 2010).

Columns and labels:
woolly cupgrass = assay: Test C pre-/postemergence test; format: in vivo, Eriochloa villosa; conditions: Preemergence
Summary of the method: (§1)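 Compounds in a non-phytotoxic solvent with surfactant applied preemergence to seeded pots and, at the same time, postemergence to plants 2–18 cm tall (1- to 4-leaf stage). Paddy tests: pots flooded to 3 cm, compound applied into the water, depth held throughout.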

morningglory [1] = assay: Test A pre-/postemergence greenhouse test; format: in vivo, Ipomoea spp.; conditions: for Morningglory plant response rating: 0 to 100 scale
Summary of the method: (§2)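 Seeds sown in a loam soil–sand blend got a preemergence directed soil spray of compound in a non-phytotoxic solvent mixture containing surfactant. Postemergence sprays of the same formulation went at the same time onto plants 2–10 cm tall at the one- to two-leaf stage. Injury was scored visually against untreated controls after about ten days in the greenhouse.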

soybean = assay: Test C pre-/postemergence test; format: in vivo, Glycine max; conditions: 62 g ai/ha, Preemergence; scale 0 to 100
Summary of the method: as §1

Goosegrass = assay: Test C pre-/postemergence test; format: in vivo, Eleusin indica; conditions: Preemergence
Summary of the method: as §1

wheat = assay: Test A pre-/postemergence greenhouse test; format: in vivo, Triticum aestivum; conditions: for Wheat plant response rating: 0 to 100 scale
Summary of the method: as §2

umbrella sedge = assay: Test C flooded paddy test; format: in vivo, Cyperus difformis; conditions: Flood
Summary of the method: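 Pots were flooded to 3 cm above the soil surface at treatment, compound applied directly to the paddy water, and that depth held throughout. Plants were kept in a greenhouse for 13 to 15 days, then visually rated against untreated controls.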

yellow nutsedge = assay: Test C pre-/postemergence test; format: in vivo, Cyperus esculentus; conditions: Preemergence
Summary of the method: as §1

crabgrass = assay: Test A pre-/postemergence greenhouse test; format: in vivo, Digitaria sanguinalis; conditions: for Crabgrass, Large plant response rating: 0 to 100 scale
Summary of the method: as §2

downy brome = assay: Test C pre-/postemergence test; format: in vivo, Bromus tectorum
Summary of the method: as §1

morningglory [2] = assay: Test C pre-/postemergence test; format: in vivo, Ipomoea coccinea; conditions: Preemergence
Summary of the method: as §1

johnsongrass = assay: Test C pre-/postemergence test; format: in vivo, Sorghum halepense; conditions: Preemergence
Summary of the method: as §1

giant foxtail [3] = assay: Test C pre-/postemergence test; format: in vivo, Setaria faberii; conditions: Preemergence
Summary of the method: as §1

common ragweed = assay: Test C pre-/postemergence test; format: in vivo, Ambrosia elation; conditions: 62 g ai/ha, Preemergence; scale 0 to 100
Summary of the method: as §1

cocklebur = assay: Test C pre-/postemergence test; format: in vivo, Xanthium strumarium
Summary of the method: as §1

lambsquarters = assay: Test C pre-/postemergence test; format: in vivo, Chenopodium album; conditions: Preemergence
Summary of the method: as §1

corn = assay: Test C pre-/postemergence test; format: in vivo, Zea mays
Summary of the method: as §1

giant foxtail [4] = assay: Test A pre-/postemergence greenhouse test; format: in vivo, Setaria faberi; conditions: for Foxtail, Giant plant response rating: 0 to 100 scale
Summary of the method: as §2

[5] = 31 g ai/ha, scale 0 to 100 (0 no effect, 100 complete control)
[6] = Postemergence, 125 g ai/ha, 0 is no effect, 100 is complete control
[7] = Postemergence, 500 g ai/ha, 0 is no effect, 100 is complete control
[8] = Preemergence, 125 g ai/ha, 0 no effect, 100 complete control
[9] = Preemergence, 500 g ai/ha, 0 to 100 scale where 0 is no effect and 100 is complete control
[10] = 62 g ai/ha, Preemergence, scale 0 to 100
[11] = Preemergence, 31 g ai/ha, scale 0 to 100 (0 no effect, 100 complete control)
[12] = preemergence, 125 g ai/ha, scale 0 (no effect) to 100 (complete control)

## CC(c1c(C(F)(F)F)nn(C)c1OCC(F)(F)F)S(=O)(=O)c1cccc[n+]1[O-] (racemic) [Compound 33]
Woolly cupgrass; 62 g ai/ha, scale 0 to 100
  Cupgrass, Woolly plant response rating: 98
Woolly cupgrass; [5]
  Plant response rating, Cupgrass, Woolly: 85
Woolly cupgrass; 250 g ai/ha
  Plant response rating (0 to 100), Cupgrass, Woolly: 100
Morningglory [1]; [6]
  Morningglory plant response rating: 60
Morningglory [1]; [7]
  Morningglory plant response rating: 90
Morningglory [1]; [8]
  Morningglory plant response rating: 90
Morningglory [1]; [9]
  Plant response rating, Morningglory: 90
soybean
  Soybean plant response rating: 60
Goosegrass; 62 g ai/ha, scale 0 to 100
  Goosegrass plant response rating: 100
Goosegrass; [5]
  Plant response rating, Goosegrass: 100
Goosegrass; 250 g ai/ha
  Plant response rating (0 to 100), Goosegrass: 100
wheat; [6]
  Wheat plant response rating: 60
wheat; [7]
  Wheat plant response rating: 70
wheat; [8]
  Wheat plant response rating: 60
wheat; [9]
  Plant response rating, Wheat: 100
Umbrella sedge; [5]
  Plant response rating, Sedge, Umbrella: 80
Umbrella sedge; 62 g ai/ha, scale 0 to 100, 0 no effect, 100 complete control, 13 to 15 days
  Plant response rating, Sedge, Umbrella: 90
Umbrella sedge; 125 g ai/ha, scale 0 to 100, 0 no effect, 100 complete control, 13 to 15 days
  Plant response rating, Sedge, Umbrella: 95
Umbrella sedge; 250 g ai/ha, scale 0 to 100, 0 no effect, 100 complete control, 13 to 15 days
  Plant response rating, Sedge, Umbrella: 95
Yellow nutsedge; 62 g ai/ha, scale 0 to 100
  Nutsedge, Yellow plant response rating: 100
Yellow nutsedge; [5]
  Plant response rating, Nutsedge, Yellow: 100
crabgrass; [6]
  Crabgrass, Large plant response rating: 90
crabgrass; [7]
  Crabgrass, Large plant response rating: 90
crabgrass; [8]
  Crabgrass, Large plant response rating: 90
crabgrass; [9]
  Plant response rating, Crabgrass, Large: 100
Downy brome; [10]
  Bromegrass, Downy plant response rating: 20
Downy brome; [11]
  Plant response rating, Bromegrass, Downy: 0
Downy brome; Preemergence, 250 g ai/ha
  Plant response rating (0 to 100), Bromegrass, Downy: 98
Downy brome; [12]
  Bromegrass, Downy plant response rating: 70
Morningglory [2]; 62 g ai/ha, scale 0 to 100
  Morningglory plant response rating: 100
Morningglory [2]; [5]
  Plant response rating, Morningglory: 100
johnsongrass; 62 g ai/ha, scale 0 to 100
  Johnsongrass plant response rating: 100
johnsongrass; [5]
  Plant response rating, Johnsongrass: 98
johnsongrass; 250 g ai/ha
  Plant response rating (0 to 100), Johnsongrass: 100
Giant foxtail [3]; 62 g ai/ha, scale 0 to 100
  Foxtail, Giant plant response rating: 100
Giant foxtail [3]; [5]
  Plant response rating, Foxtail, Giant: 98
Giant foxtail [3]; 250 g ai/ha
  Plant response rating (0 to 100), Foxtail, Giant: 100
Common ragweed
  Ragweed plant response rating: 10
cocklebur; [10]
  Cocklebur plant response rating: 0
cocklebur; [11]
  Plant response rating, Cocklebur: 0
cocklebur; Preemergence, 250 g ai/ha
  Plant response rating (0 to 100), Cocklebur: 45
cocklebur; [12]
  Cocklebur plant response rating: 40
lambsquarters; 62 g ai/ha, scale 0 to 100
  Lambsquarters plant response rating: 100
lambsquarters; [5]
  Plant response rating, Lambsquarters: 90
corn; [10]
  Corn plant response rating: 90
corn; [11]
  Plant response rating, Corn: 60
corn; Preemergence, 250 g ai/ha
  Plant response rating (0 to 100), Corn: 98
corn; [12]
  Corn plant response rating: 98
Giant foxtail [4]; [6]
  Foxtail, Giant plant response rating: 90
Giant foxtail [4]; [7]
  Foxtail, Giant plant response rating: 90
Giant foxtail [4]; [8]
  Foxtail, Giant plant response rating: 100
Giant foxtail [4]; [9]
  Plant response rating, Foxtail, Giant: 100
